Tests used:
[1] = tested on: C57BL/6 mice with cuprizone induced demyelination; experiment: Cuprizone induced demyelination / re-myelination model (rotarod, immunofluorescence, electron microscopy); assay type: in vivo, mouse
Protocol: Cuprizone at 0.2% induces demyelination in the corpus callosum by 3 weeks, with maximum demyelination at 5-6 weeks. 8-week-old C57BL/6 mice purchased from Jackson Laboratories or 8-week old Mgat5^+/− C57BL/6 mice were treated with 0.2% Cuprizone (Sigma) mixed into milled rodent chow for 6 weeks for the active phase treatment and 5 weeks for the recovery treatment. During active phase treatment, GIcNAc (1 mg/mL) in drinking water or just drinking water (control) was provided for the last 3 weeks of Cuprizone treatment. For the recovery phase treatment, GIcNAc in drinking water or control was provided after Cuprizone treatment had been stopped. Mice were anesthetized and underwent cardiac perfusion with 4% paraformaldehyde in PBS or 4% paraformaldehyde plus 0.5% glutaraldehyde in Sodium cacodylate buffer for immunofluorescence or electron microscopic analysis respectively. Brains were then fixed overnight in perfusion solution
One day prior to Cuprizone treatment, mice were trained on the rotarod by allowing them to run three 5-minute trials at a constant 30 rotations per minute (RPM). Mice then underwent weekly testing during Cuprizone and GIcNAc treatment on an accelerating rotarod starting at 4 rpm increasing to 40 rpm over 5 minutes. Latency for mice to fall was recorded. If a mouse was not running on the rotarod by holding on for 3 turns, this was considered a fall. For the active phase treatment, one trial was run every week. For the recovery phase treatment, 3 trials were run for each mouse each week and latencies were averaged. As expected with Cuprizone treatment performance degraded as treatment progressed.
For neural stem cell (NSC) immunofluorescence, whole neurospheres were seeded onto laminin-coated coverslips (Neuvitro) in proliferation medium. After 24 hours, proliferation media was removed and replaced with differentiation medium (same components as proliferation medium but excluding EGF, bFGF, and heparin) to induce differentiation. For analysis of mouse brains, brains were incubated in 30% sucrose for at least 72 hours, embedded in OCT (Tissue-tek), frozen for at least 48 hours at −80° C., and then cut at 40 microns on a cryostat. Multiple sections from −1 bregma to −2.5 bregma were then stained with antibodies for MBP (1:100; MAB386, Millipore), Olig2 (1:200; AB9610, Millipore), CC1 (1:100; OP90, Millipore), degraded MBP (1:200, AB5864, Millipore) and Amyloid Precursor Protein (APP, 1:200; clone 22C11). After overnight incubation with primary antibody, tissues were washed and incubated with secondary antibodies: goat anti-rat Alexa-fluor 488 (1:200, Thermofisher), goat anti-rabbit TxRd (1:200, Thermofisher). APP is a marker for neuro-axonal damage while co-staining for CC1 and Olig2 are markers of mature oligodendrocytes. In order to examine the amount of myelin, slices were incubated in Fluoromyelin (1:300; F34651, Thermofisher) for 45 minutes. Images were acquired on a Keyence fluorescence microscope. Mean fluorescence intensity of the medial corpus callosum was measured using ImageJ.
Three mice from each treatment group (control and GIcNAc) were selected randomly for EM analysis (before other investigations were performed). Portions of these brains from 0 to −1 bregma were rinsed in 0.1 M cacodylate buffer overnight and again for 15 min. the next day. 2×1 mm blocks of the corpus callosum were dissected out and post-fixed with 1% osmium tetroxide in 0.1 M cacodylate buffer for 1 hour, rinsed in ddH20, dehydrated in increasing serial dilutions of ethanol (70%, 85%, 95%, 100%×2) for 10 min each, put in propylene oxide (intermediate solvent) for 2×10 min, incubated in propylene oxide/Spurr's resin (1:1 mix) for 1 h, and then in Spurr's resin overnight. The blocks were put in a fresh change of resin in flat embedding molds the next day and polymerized overnight at 60° C. The blocks were sectioned at 1 μm using a Leica Ultracut UCT ultramicrotome. […]

MS patients [2] = experiment: Open-label Phase 1 trial of oral GIcNAc in MS: safety, tolerability, relapse rate; assay type: in vivo, human
Protocol: Based on its immunomodulatory effects, a FDA approved (IND 122235) dose escalation was carried out, open-label NIH funded Phase 1 mechanistic clinical trial of oral GIcNAc in MS patients (RRMS and PMS) on glatiramer acetate and not in acute relapse, with the primary endpoint an increase in N-glycan branching in T cells. This endpoint was used as a surrogate marker for GIcNAc's biological activity. Three doses were evaluated: 1 g TID (3 g total, n=13), 2 g TID (6 g total, n=18) and 4 g TID (12 g total, n=16). Subjects had baseline blood drawn weekly four times, then started on oral GIcNAc with 4 weekly blood draws (FIG. 8A).
The annualized relapse rate on GIcNAc in the combined group was 0.277 (from a single relapse in a subject on the 6 g dose).

[3] = Phase 1 trial: serum HexNAc levels by LC-MS/MS; assay type: in vivo, human; conditions: 6 g and 12 g cohorts, after stopping oral GIcNAc
MS patients [4] = experiment: Phase 1 trial: four-week confirmed improvement in disability (EDSS); assay type: in vivo, human; conditions: unblinded
Protocol: Four-week confirmed improvement in disability (EDSS) was also evaluated in the 6 g and 12 g cohorts. […] Baseline EDSS scores were compared with scores after 4 weeks of oral GIcNAc that were confirmed 4 weeks later at the last study visit.

[5] = GIcNAc only after cuprizone stopped, wildtype 2 weeks, Mgat5+/- 1 or 4 weeks
[6] = Mgat5+/- mice, 4 weeks GIcNAc after 5 weeks cuprizone
[7] = wildtype mice, GIcNAc during final 3 weeks of 6-week cuprizone exposure

## CC(=O)N[C@H]1C(O)O[C@H](CO)[C@@H](O)[C@@H]1O (stereo partly drawn) [GIcNAc, N-acetylglucosamine]
[1]; [5]
  degraded MBP (dMBP)/myelin degeneration in the corpus callosum: reducing
  levels of MBP in the corpus callosum: enhanced
  levels of myelin (fluoromyelin) in the corpus callosum: enhanced
  mature oligodendrocytes (CC1 Olig2+) in the corpus callosum: enhanced
[1]; [6]
  axon loss (electron microscopy): reducing
  degree of myelination (g-ratio, electron microscopy): enhanced
  number of degenerating and dystrophic/swollen axons (electron microscopy): reducing
  number of myelinated axons (electron microscopy): enhanced
  number of paranodes (electron microscopy): enhanced
[1]; Mgat5+/- mice, recovery phase
  increase in fluoromyelin staining, 4 versus 1 week of GIcNAc treatment: ~2 fold
[1]; wildtype mice, GIcNAc during final 3 weeks of 6-week cuprizone (0.2%) exposure
  motor function (rotarod fall latency): prevented loss of motor function
[1]; [7]
  MBP levels in the corpus callosum: increasing
  axonal damage (accumulation of amyloid precursor protein, APP) in the corpus callosum: reducing
MS patients [2]; combined group, a single relapse in a subject on the 6 g dose
  annualized relapse rate on GIcNAc: 0.277
MS patients [2]; oral, 12 g per day (4 g TID)
  subjects with mild GI symptoms (gas, bloating, loose stool): ~50%
MS patients [2]; oral, all doses
  discontinuation due to GI symptoms: No subject discontinued
MS patients [2]; oral, all doses (3 g, 6 g, 12 g per day), 4 weeks
  safety: safe
MS patients [2]; oral, the other doses (3 g, 6 g per day)
  subjects with mild GI symptoms (gas, bloating, loose stool): not
[3]
  serum HexNAc levels during the washout period: rapidly declined back to baseline
MS patients [4]; 6 g/day, 4 of 18 subjects
  subjects with 4-week confirmed improvement in clinical disability (EDSS): 22%
MS patients [4]; 12 g/day, 5 of 16 subjects
  subjects with 4-week confirmed improvement in clinical disability (EDSS): 31%

From patent US20240415858A1, “PROMOTING MYELINATION BY N-ACETYLGLUCOSAMINE AND MODULATION OF N-GLYCAN BRANCHING” (THE REGENTS OF THE UNIVERSITY OF CALIFORNIA, priority 2021, published 2024)
